# Like-named read-outs stand apart in the source and are kept apart here.
# Experiments:
# [1] = test system: Lucilia cuprina; assay: Lucilia cuprina test (L1 larvae on treated minced horse meat); type: in vivo; conditions: 48 h, Aufwandmenge 100ppm, after 2 days, read-out: Wirkung (Abtötung)
# Description: (§1) Zur Herstellung einer zweckmäßigen Wirkstoffzubereitung vermischt man 10 mg Wirkstoff mit 0,5 ml Dimethylsulfoxid und verdünnt das Konzentrat mit Wasser auf die gewünschte Konzentration.
# Ca. 20 L1-Larven der Australischen Schafgoldfliege (Lucilia cuprina) werden in ein Testgefäß überführt, welches gehacktes Pferdefleisch und die Wirkstoffzubereitung der gewünschten Konzentration enthält.
# Nach 2 Tagen wird die Abtötung in % bestimmt. Dabei bedeutet 100 %, dass alle Larven abgetötet wurden; 0 % bedeutet, dass keine Larven abgetötet wurden.
# [2] = test system: Ctenocephalides felis; assay: Ctenocephalides felis oral test (feeding on treated citrated cattle blood); type: in vivo; conditions: 48 h, Aufwandmenge 100ppm, after 2 days, read-out: Wirkung (Abtötung)
# Description: Zwecks Herstellung einer zweckmäßigen Wirkstoffzubereitung vermischt man 10 mg Wirkstoff mit 0,5 ml Dimethylsulfoxid. Durch Verdünnen mit citriertem Rinderblut erhält man die gewünschte Konzentration.
# Ca. 20 nüchterne adulte Katzenflöhe (Ctenocephalides felis) werden in eine Kammer eingesetzt, die oben und unten mit Gaze verschlossen ist. Auf die Kammer wird ein Metallzylinder gestellt, dessen Unterseite mit Parafilm verschlossen ist. Der Zylinder enthält die Blut-Wirkstoffzubereitung, die von den Flöhen durch die Parafilmmembran aufgenommen werden kann.
# Nach 2 Tagen wird die Abtötung in % bestimmt. Dabei bedeutet 100 %, dass alle Flöhe abgetötet wurden; 0 % bedeutet, dass keiner der Flöhe abgetötet wurde.
# [3] = test system: Spodoptera frugiperda; assay: Spodoptera frugiperda spray test (maize leaf discs, caterpillars); type: in vivo; conditions: foliar, 168 h, Aufwandmenge 500g/ha, after 7 days, read-out: Wirkung
# Description: (§2) Zur Herstellung einer zweckmäßigen Wirkstoffzubereitung löst man 1 Gewichtsteil Wirkstoff mit den angegebenen Gewichtsteilen Lösungsmittel und füllt mit Wasser, welches eine Emulgatorkonzentration von 1000 ppm enthält, bis zum Erreichen der gewünschten Konzentration auf. Zur Herstellung weiterer Testkonzentrationen wird mit emulgatorhaltigem Wasser verdünnt.
# Maisblattscheiben (Zea mays) werden mit einer Wirkstoffzubereitung der gewünschten Konzentration gespritzt und nach dem Abtrocknen mit Raupen des Heerwurms (Spodoptera frugiperda) besetzt.
# Nach 7 Tagen wird die Wirkung in % bestimmt. Dabei bedeutet 100 %, dass alle Raupen abgetötet wurden; 0 % bedeutet, dass keine Raupe abgetötet wurde.
# [4] = test system: Musca domestica; assay: Musca domestica test (adult flies, treated sugar sponge); type: in vivo; conditions: 48 h, read-out: Wirkung (Abtötung)
# Description: as §1
# Gefäße, die einen Schwamm enthalten, der mit Zuckerlösung und der Wirkstoffzubereitung der gewünschten Konzentration behandelt wurde, werden mit 10 adulten Stubenfliegen (Musca domestica) besetzt.
# Nach 2 Tagen wird die Abtötung in % bestimmt. Dabei bedeutet 100 %, dass alle Fliegen abgetötet wurden; 0 % bedeutet, dass keine der Fliegen abgetötet wurde.
# [5] = test system: Phaedon cochleariae; assay: Phaedon cochleariae spray test (Chinese cabbage leaf discs, larvae); type: in vivo; conditions: foliar, 168 h, read-out: Wirkung
# Description: as §2
# Chinakohlblattscheiben (Brassica pekinensis) werden mit einer Wirkstoffzubereitung der gewünschten Konzentration gespritzt und nach dem Abtrocknen mit Larven des Meerrettichblattkäfers (Phaedon cochleariae) besetzt.
# Nach 7 Tagen wird die Wirkung in % bestimmt. Dabei bedeutet 100 %, dass alle Käferlarven abgetötet wurden; 0 % bedeutet, dass keine Käferlarven abgetötet wurden.
# [6] = test system: Tetranychus urticae; assay: Tetranychus urticae spray test, OP-resistant (bean leaf discs); type: in vivo; conditions: foliar, 144 h, read-out: Wirkung
# Description: as §2
# Bohnenblattscheiben (Phaseolus vulgaris), die von allen Stadien der Gemeinen Spinnmilbe (Tetranychus urticae) befallen sind, werden mit einer Wirkstoffzubereitung der gewünschten Konzentration gespritzt.
# Nach 6 Tagen wird die Wirkung in % bestimmt. Dabei bedeutet 100 %, dass alle Spinnmilben abgetötet wurden; 0 % bedeutet, dass keine Spinnmilben abgetötet wurden.
# [7] = logP by reversed-phase HPLC (LC-MS), neutral range; type: physicochemical; conditions: c18 hplc, ammonium bicarbonate/acetonitrile; pH 7.8, 0,001 molar aqueous Ammoniumhydrogencarbonat / Acetonitril, C 18, 55°C
# Description: (§3) Die Messung der logP Werte erfolgt gemäß EEC Directive 79/831 Annex V.A8 durch HPLC (High Performance Liquid Chromatography) an einer Phasenumkehrsäule (C 18). Temperatur: 55°C. Die Bestimmung mit der LC-MS im sauren Bereich erfolgt bei pH 2,7 mit 0,1 % wässriger Ameisensäure und Acetonitril (enthält 0,1% Ameisensäure) als Eluenten; linearer Gradient von 10% Acetonitril bis 95% Acetonitril. In der Tabelle logP (HCOOH) genannt.
# Die Bestimmung mit der LC-MS im neutralen Bereich erfolgt bei pH 7.8 mit 0,001 molarer wässriger Ammoniumhydrogencarbonat-Lösung und Acetonitril als Eluenten; linearer Gradient von 10 % Acetonitril bis 95 % Acetonitril. In der Tabelle logP (neutral) genannt.
# (§4) Die Eichung erfolgt mit unverzweigten Alkan-2-onen (mit 3 bis 16 Kohlenstoffatomen), deren logP-Werte bekannt sind (Bestimmung der logP-Werte anhand der Retentionszeiten durch lineare Interpolation zwischen zwei aufeinander folgenden Alkanonen).
# [8] = test system: Ctenocephalides felis; assay: Ctenocephalides felis in-vitro contact test with adult cat fleas (coated glass tubes); type: in vivo; conditions: 48 h, read-out: Wirkung
# Description: Für die Beschichtung der Teströhrchen werden zunächst 9 mg Wirkstoff in 1 ml Aceton p.a. gelöst und anschließend mit Aceton p.a. auf die gewünschte Konzentration verdünnt. 250 µl der Lösung werden durch Drehen und Kippen auf einem Rotationsschüttler (2 h Schaukelrotation bei 30 rpm) homogen auf den Innenwänden und dem Boden eines 25ml Glasröhrchens verteilt. Bei 900 ppm Wirkstofflösung und 44,7 cm^2 Innenoberfläche wird bei homogener Verteilung eine Flächendosis von 5 µg/cm^2 erreicht.
# Nach Abdampfen des Lösungsmittels werden die Gläschen mit 5-10 adulten Katzenflöhen (Ctenocephalides felis) besetzt, mit einem gelochten Kunststoffdeckel verschlossen und liegend bei Raumtemperatur und Umgebungsfeuchte inkubiert. Nach 48 h wird die Wirksamkeit bestimmt. Hierzu werden die Gläschen aufrecht gestellt und die Flöhe auf den Boden des Gläschens geklopft. Flöhe, die unbeweglich auf dem Boden verbleiben oder sich unkoordiniert bewegen, gelten als tot bzw. angeschlagen.
# Eine Substanz zeigt gute Wirkung gegen Ctenocephalides felis, wenn in diesem Test bei einer Aufwandmenge von 5 µg/cm^2 mindestens 80% Wirkung erzielt wurde. Dabei bedeutet 100% Wirkung, dass alle Flöhe angeschlagen oder tot waren. 0% Wirkung bedeutet, dass keine Flöhe geschädigt wurden.
# [9] = logP by reversed-phase HPLC (LC-MS), acidic range; type: physicochemical; conditions: c18 hplc, formic acid/acetonitrile; pH 2,7, 0,1 % aqueous Ameisensäure / Acetonitril, C 18, 55°C; read-out: logP (HCOOH)
# Description: as §3, §4
# [10] = test system: Meloidogyne incognita; assay: Meloidogyne incognita test (gall formation on lettuce roots); type: in vivo; conditions: 336 h, Aufwandmenge 20ppm, after 14 days, read-out: Wirkung (nematizide Wirkung anhand der Gallenbildung)
# Description: Zur Herstellung einer zweckmäßigen Wirkstoffzubereitung vermischt man 1 Gewichtsteil Wirkstoff mit der angegebenen Menge Lösungsmittel und verdünnt das Konzentrat mit Wasser auf die gewünschte Konzentration.
# Gefäße werden mit Sand, Wirkstofflösung, einer Ei-Larven-Suspension des südlichen Wurzelgallenälchens (Meloidogyne incognita) und Salatsamen gefüllt. Die Salatsamen keimen und die Pflänzchen entwickeln sich. An den Wurzeln entwickeln sich die Gallen.
# Nach 14 Tagen wird die nematizide Wirkung anhand der Gallenbildung in % bestimmt. Dabei bedeutet 100 %, dass keine Gallen gefunden wurden; 0 % bedeutet, dass die Zahl der Gallen an den behandelten Pflanzen der unbehandelten Kontrolle entspricht.
# [11] = test system: Myzus persicae; assay: Myzus persicae spray test (Chinese cabbage leaf discs); type: in vivo; conditions: foliar, 144 h, Aufwandmenge 500g/ha, after 6 days, read-out: Wirkung
# Description: as §2
# Chinakohlblattscheiben (Brassica pekinensis), die von allen Stadien der Grünen Pfirsichblattlaus (Myzus persicae) befallen sind, werden mit einer Wirkstoffzubereitung der gewünschten Konzentration gespritzt.
# Nach 6 Tagen wird die Wirkung in % bestimmt. Dabei bedeutet 100 %, dass alle Blattläuse abgetötet wurden; 0 % bedeutet, dass keine Blattläuse abgetötet wurden.
Compound,chromatographic logP [7],mortality at 100 µg/mL [2],mortality at 500 g/ha [3],mortality at 500 g/ha [5],other results
O=C(Nc1cc(-c2ccc(OC(F)(F)F)cc2)cc(NC(=O)C2(C3CC3)CC2)n1)C1CC1 [I-014],,100%,100%,100%,mortality at 100 µg/mL [1]: 100%; mortality at 100 µg/mL [4]: 80%
CC1=CC1C(=O)Nc1cc(-c2ccc(OC(F)(F)F)cc2)cc(NC(=O)C2CC2)n1 (stereo not shown) [I-034],,,,,"mortality at 500 g/ha ([6]; Aufwandmenge 500g/ha, after 6 days, OP-resistent): 90%"
CC(C)(C)C(=O)Nc1cc(-c2ccc(OC(F)(F)F)cc2)cc(NC(=O)C2CC2)n1 [I-017],,100%,100%,100%,mortality at 500 g/ha [8]: 100%
CC(C)(F)C(=O)Nc1cc(-c2ccc(OC(F)(F)F)cc2)cc(NC(=O)C2CC2)n1 [I-015],,100%,100%,100%,mortality at 500 g/ha [6]: 90%
"CC(C)C(=O)Nc1cc(NC(=O)C2CC2)cc(-c2ccc(C(F)(F)C(F)(F)F)c(F)c2)c1 [I-060, N-[3'-Fluor-5-(isobutyrylamino)-4'-(pentafluorethyl)biphenyl-3-yl]cyclopropancarboxamid]",,,100%,100%,chromatographic logP [9]: 3.7
"COC(=O)N(C(=O)C1CC1)c1cc(-c2ccc(OC(F)(F)F)cc2)cc(N(C(=O)OC)C(=O)C2CC2)n1 [I-037, Dimethyl-{4-[4-(trifluormethoxy)phenyl]pyridin-2,6-diyl}bis[(cyclopropylcarbonyl)carbamat]]",3.73,,,,"mortality at 500 g/ha ([5]; Aufwandmenge 500g/ha, after 7 days): 100%"
O=C(Nc1cc(-c2ccc(OC(F)(F)F)cc2)cc(NC(=O)C2(C(F)(F)F)CC2)n1)C1CC1 [I-006],,100%,100%,83%,mortality at 100 µg/mL [4]: 90%
O=C(Nc1cc(-c2ccc(C(F)(F)C(F)(F)F)cc2)cc(NC(=O)C2CC2)n1)C1CC1 [I-036],,100%,100%,83%,mortality at 100 µg/mL [1]: 95%; mortality at 500 g/ha [6]: 90%
"O=C(Nc1cc(-c2ccc(OC(F)(F)F)cc2)cc(NC(=O)C2CC2)n1)C1CC1 [I-001, N,N'-{4-[4-(Trifluormethoxy)phenyl]pyridin-2,6-diyl}dicyclopropancarboxamid]",,100%,100%,100%,inhibition at 20 µg/mL [10]: 90%; mortality at 100 µg/mL [1]: 95%
O=C(Nc1cc(-c2ccc(OC(F)(F)F)cc2)cc(NC(=O)C2(c3ccccc3)CC2)n1)C1CC1 [I-008],,,,,mortality at 500 g/ha [11]: 90%

# Second part, led by results:
chromatographic logP [7],Compound,mortality at 100 µg/mL [2],mortality at 500 g/ha [3],mortality at 500 g/ha [5],other results
4.06,"O=C(Nc1cc(-c2ccc(C(F)(F)C(F)(F)F)c(F)c2)cc(NC(=O)C2CC2)n1)C1CC1 [I-035, N,N'-{4-[3-Fluor-4-(pentafluorethyl)phenyl]pyridin-2,6-diyl}dicyclopropancarboxamid]",,100%,100%,
4.44,"O=C(Nc1cc(-c2ccc(OC(F)(F)F)cc2)cc(NC(=S)C2CC2)n1)C1CC1 [I-033, N-{6-[(Cyclopropylcarbonothioyl)amino]-4-[4-(trifluormethoxy)phenyl]pyridin-2-yl}cyclopropancarboxamid]",,100%,,
4.05,"CCN(C(=O)C1CC1)c1cc(-c2ccc(OC(F)(F)F)cc2)cc(N(CC)C(=O)C2CC2)n1 [I-29, N,N'-{4-[4-(Trifluormethoxy)phenyl]pyridin-2,6-diyl}bis(N-ethylcyclopropancarboxamid)]",,,,
3.88,"O=C(Nc1cc(-c2ccc(OC(F)(F)F)cc2)cc(NC(=O)C2(F)CC2)n1)C1CC1 [I-012, N-{6-[(Cyclopropylcarbonyl)amino]-4-[4-(trifluormethoxy)phenyl]pyridin-2-yl}-1-fluorcyclopropancarboxamid]",95%,100%,100%,
3.66,"CN(C(=O)C1CC1)c1cc(-c2ccc(OC(F)(F)F)cc2)cc(NC(=O)C2CC2)n1 [I-31, N-{6-[(Cyclopropylcarbonyl)amino]-4-[4-(trifluormethoxy)phenyl]pyridin-2-yl}-N-methylcyclopropancarboxamid]",,,,
1.46,"Nc1cc(Br)c(Cl)c(N)n1 [4-Brom-3-chlorpyridin-2,6-diamin]",,,,
4.98,"FC(F)(F)Oc1ccc(-c2cc(NC(=S)C3CC3)nc(NC(=S)C3CC3)c2)cc1 [I-032, N,N'-{4-[4-(Trifluormethoxy)phenyl]pyridin-2,6-diyl}dicyclopropancarbothioamid]",,100%,,
1.61,Nc1cc(Br)cc(NC(=O)C2CC2)n1 [N-(6-Amino-4-brompyridin-2-yl)cyclopropancarboxamid],,,,

# From EP3284739A1, “SUBSTITUTED (HET) ARYL COMPOUNDS AS PESTICIDES” (Bayer CropScience Aktiengesellschaft, priority 2017, dated 2018)
